According to article PMC11413503, “SCR‐7952, a highly selective MAT2A inhibitor, demonstrates synergistic antitumor activities in combination with the S‐adenosylmethionine‐competitive or the methylthioadenosine‐cooperative protein arginine methyltransferase 5 inhibitors in methylthioadenosine phosphorylase‐deleted tumors” (MedComm, 2024):

Tested on: SAM levels in HCT116 MTAP−/− xenograft tumors and mice plasma
Test: In vivo SAM measurement in tumors and plasma
Conditions: 2 or 4 h post the final dose, low group, 16 days
Description: The concentration of SAM in plasma and tissue samples was determined using a UPLC–MS/MS method. For plasma samples, an aliquot of 20 µL plasma sample was added with 400 µL extraction buffer (1 M acetic acid in MeOH), then vortexed and centrifuged at 16,000 g for 5 min. The supernatant was treated as the homogenized tissue sample, and the sample dilution factor was 21. For tumor samples, the tumor tissues were homogenized with 9 volumes (v/w) of extraction buffer, then vortexed and centrifuged at 16,000 g for 5 min. The supernatant was treated as the homogenized tissue sample. An aliquot of 30 µL tissue sample was added with 600 µL extraction buffer, then vortexed and centrifuged at 16,000 g for 5 min. The total sample dilution factor is 210. An aliquot of 60 µL diluted samples, standards, or QCs was added with 400 µL extraction buffer with IS (SAM‐d 3, 50 ng/mL in extraction buffer). The mixture was vortexed at 250 g for 10 min and centrifuged at 16,000 g for 5 min. An aliquot of 4 µL supernatant was injected for UPLC–MS/MS analysis. The standard calibration curve was in a 1.0–300 ng/mL concentration range. UPLC–MS/MS method for SAM detection was performed as mentioned before.

SMILES: Cn1cnc2c(=O)n(-c3cccnc3C3CC3)c3cc(Cl)ccc3c21 [SCR‐7952, 7‐chloro‐5‐(2‐cyclopropylpyridin‐3‐yl)‐1‐methyl‐1,5‐dihydro‐4H‐imidazo[4,5‐c]quinolin‐4‐one]
- inhibition of SAM levels in tumors and plasma: 53.56–68.72%
